Measured values taken from patent US20140309295A1, “ANTIEPILEPTIC, HYPOCHOLESTEROLEMIC AND NEUROPROTECTIVE COMPOUND” (NEURON BIOPHARMA, S.A., priority 2009, published 2014).

What was measured:
Zucker rats = test: Hypolipidemic effect in genetically obese Zucker rats, oral 7 days; assay type: in vivo; settings: 30 mg/kg oral
Procedure: (§1) All the animals included for the experimental process were 11 week-old male Zucker rats. The experiments were conducted strictly following the Guidance on the Operation of Animals (Scientific Procedures, Act. 1986). The animals had their respective quarantine period and were treated with maximum precaution to minimize possible contaminations for inoculations and handling.
After a conditioning to the diet, 30 mg/kg of NST0021 or NST0037 were orally administered to the […] at the same time (15.00 to 18.00 h) for 7 consecutive days, using in both cases 0.5% carboxy methylcellulose in water as a vehicle. The control group received this same vehicle. Before starting the treatments and at 7 days therefrom, blood was extracted by lingual puncture under anesthesia after fasting for 16 hours. The plasma was obtained from said blood, in which the total cholesterol, HDL-c, LDL-c, VLDL-c, and triglyceride (TG) levels were evaluated by enzymatic and spectrophotometric techniques. In order to check if the effect at the lipid level involved an alteration of the oxidative stress, the redox state in the plasmas obtained was furthermore evaluated by means of the TEAC (Trolox Antioxidant Capacity Assay) technique. This technique determines the antioxidant capacity in vitro, giving an idea of the redox state of the sample analyzed by means of the absorbance capacity by electron transfer. The different components of the reaction, myoglobin, ABTS (2,2-azino-bis-(3-ethylbenzthiazoline-sulfonic acid) and hydrogen peroxide were added to the plasmas diluted 1/10 in PBS (10 μL) in a 96-well plate. After 3 minutes of incubation, the absorbance was measured at 405 nm (with a reference of 600 nm).

[1] = tested on: SK-N-MC (human neuroblastoma) line; test: Total cholesterol levels in neuronal cell line; assay type: cell-based; settings: acid compounds, 20 hours, absence of FBS
Procedure: To carry out this assay, the compounds were activated with NaOH until the lactone form was completely opened.
Both the Hep G2 (human hepatocarcinoma) line and the SK-N-MC (human neuroblastoma) line were obtained from the American Type Culture Collection (ATCC no. HB-8065 and HTB-10 respectively). In all cases strict rules of sterility were followed and the manipulation was performed in class II biological safety cabinets following European standard EN 12469. The cells maintained in passage were seeded in 96-well plates in MEM supplemented with 10% FBS, 2 mM L-glutamine, 1 mM sodium pyruvate, 0.1 mM non-essential amino acids and 0.05 mg/mL gentamicin. In the case of HepG2, 4×10^4 cells/well were seeded and in the case of SK-N-MC 5×10^4 cells/well were seeded. After 24 hours had elapsed from the seeding, the cells were deprived of FBS for 8 hours. The cells were then incubated with the treatments at various concentrations for 20 hours. After the incubation period, the cells were washed with PBS and lysed with a phosphate buffer with 0.5% Triton X-100. […]
The total cholesterol was quantified by means of enzymatic and fluorometric techniques. […] The fluorescence intensity was determined at 530 nm of excitation and 580 nm of emission by means of a fluorometer. The results were normalized by protein, which was determined by means of the BCA technique.

[2] = tested on: FVB/NHan mice inoculated with kainate (KA); test: Integral memory test (temporal and spatial memory) in mice after kainate; assay type: in vivo
Procedure: as §1, with “12-week old males of the FVB/NHan strain.” for “11 week-old male Zucker rats.”
Twenty-eight animals were used in this assay and the treatments were all conducted by intraperitoneal (i.p.) route with a volume of 100 μl, according to the following regimens: • i) PBS+PBS+PBS regimen: 4 animals were initially treated with PBS with a daily dose for 2 days, on the second day the animals were inoculated with a new dose of PBS and for the following 3 days with a daily dose of PBS. • ii) PBS+KA+PBS regimen: 6 animals were initially treated with PBS with a daily dose for 2 days, on the second day the animals were inoculated with a dose of kainate at 25 mg/Kg and for the following 3 days with a daily dose of PBS. • iii) PBS+KA+NST0037 regimen: 7 animals were initially treated with PBS with a daily dose for 2 days, on the second day the animals were inoculated with a dose of kainate at 25 mg/Kg and for the following 3 days with a daily dose of NST0037 at 50 mg/kg. • iv) NST0037+KA+NST0037 regimen: 6 animals were initially treated with a daily dose for 2 days with NST0037 at 50 mg/kg, on the second day the animals were inoculated with a dose of kainate at 25 mg/Kg and for the following 3 days with a daily dose of NST0037 at 50 mg/kg. • v) NST0037+PBS+NST0037 regimen: 5 animals were initially treated with a daily dose for 2 days with NST0037 at 50 mg/kg, on the second day the animals were inoculated with a dose of PBS and for the following 3 days with a daily dose of NST0037 at 50 mg/kg.
Three days after inoculation of KA, an object recognition test called integral memory test was performed on the animals.

[3] = tested on: FVB/NHan mice inoculated with kainate (KA); test: Antiepileptic effect against kainate in mice (Racine scale); assay type: in vivo
Procedure: as §1, with “12-week old males of the FVB/NHan strain.” for “11 week-old male Zucker rats.”
The animals were intraperitoneally inoculated with 25 mg/kg of kainate (KA) dissolved in PBS. Thirteen animals were pre-treated 24 and 0.5 hours before inoculation with KA by means of intraperitoneal injection with PBS (PBS+KA administration regimen) and 6 were pre-treated 24 and 0.5 hours before inoculation with KA by means of intraperitoneal injection with NST0037 at a dose of 50 mg/kg (NST0037+KA administration regimen). After the inoculation, the animals were individually housed in trays to monitor them. The maximum epilepsy level of the animals was recorded during the observation according to the Racine scale every ten minutes and for at least 120 minutes post-inoculation (m.p.i.).

CCC(CC)C(=O)O[C@H]1C[C@@H](C)C=C2C=C[C@H](C)[C@H](CC[C@@H]3C[C@@H](O)CC(=O)O3)[C@H]21 [NST0037, (1S,2S,6R,8S,8aR)-1,2,6,7,8,8a-hexahydro-3,7-dimethyl-8-[2-[(2R,4R)-tetrahydro-4-hydroxy-6-oxo-2H-pyran-2-yl]ethyl]-1-naphthalenyl-2-ethyl-butyrate]
HDL (Zucker rats): increase of HDL | oxidative stress (redox state in plasma, TEAC) (Zucker rats): drastic reduction | plasma triglyceride levels (Zucker rats): reduced the plasma triglyceride levels | plasma LDL levels (Zucker rats; male Zucker rats): equally reducing the plasma LDL levels | reduction of total cholesterol levels [1]: reductions of cholesterol with both compounds were similar | spatial memory ([2]; NST0037+KA+NST0037 regimen, 50 mg/kg i.p.): spatial memory is intact | temporal memory ([2]; NST0037+KA+NST0037 regimen, 50 mg/kg i.p., 3 days after KA): prevented the reduction in the temporal memory capacity | spatial memory ([2]; NST0037+PBS+NST0037 regimen): spatial memory is intact | temporal memory ([2]; NST0037+PBS+NST0037 regimen, vs PBS+PBS+PBS): improvement of the temporal memory | spatial memory ([2]; PBS+KA+NST0037 regimen, 50 mg/kg i.p.): improvement of this type of memory | temporal memory ([2]; PBS+KA+NST0037 regimen, 50 mg/kg i.p., 3 days after KA): improvement of the state of the temporal memory | epileptogenic symptoms from 100 m.p.i. ([3]; NST0037+KA regimen): caused the disappearance of the epileptogenic symptoms | epilepsy level on the Racine scale ([3]; NST0037+KA, 120 minutes observation): < 3
